Measured values: patent publication US20250230193A1, “CYCLIC COMPOUND HAVING SELECTIVE KRAS INHIBITORY EFFECT ON HRAS AND NRAS” (CHUGAI SEIYAKU KABUSHIKI KAISHA, priority 2022, published 2025)

Key:
[1] = target: GDP-bound HRAS wild-type protein (Homo sapiens, UniProt P01112); test: Binding to HRAS by surface plasmon resonance (SPR), Single Cycle Kinetics; settings: for HRAS/KRAS (ratio of KD value with respect to HRAS to KD value with respect to KRAS) / HRAS/KRAS (ratio of KD value for HRAS to KD value for KRAS): GDP-bound HRAS wild-type vs GDP-bound KRAS wild-type
[2] = target: GDP-bound NRAS wild-type protein (Homo sapiens, UniProt P01111); test: Binding to NRAS by surface plasmon resonance (SPR), Single Cycle Kinetics; settings: for NRAS/KRAS (ratio of KD value with respect to NRAS to KD value with respect to KRAS) / NRAS/KRAS (ratio of KD value for NRAS to KD value for KRAS): GDP-bound NRAS wild-type vs GDP-bound KRAS wild-type
GDP-bound NRAS wild-type protein, sequence (P01111 whole entry): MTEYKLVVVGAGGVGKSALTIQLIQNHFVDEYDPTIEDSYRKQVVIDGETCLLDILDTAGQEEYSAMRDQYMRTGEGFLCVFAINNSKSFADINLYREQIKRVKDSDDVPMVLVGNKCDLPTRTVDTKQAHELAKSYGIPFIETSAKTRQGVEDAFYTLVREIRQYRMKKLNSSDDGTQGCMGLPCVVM

GDP-bound HRAS wild-type protein, sequence (P01112 whole entry): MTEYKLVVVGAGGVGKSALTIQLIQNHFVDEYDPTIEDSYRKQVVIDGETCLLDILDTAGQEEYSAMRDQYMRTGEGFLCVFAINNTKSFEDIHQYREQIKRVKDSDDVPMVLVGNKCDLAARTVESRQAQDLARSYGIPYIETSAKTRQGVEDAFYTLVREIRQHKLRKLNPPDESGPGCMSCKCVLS

Compound: CCC[C@H]1C(=O)N[C@@H]([C@@H](C)CC)C(=O)N(C2CC2)CC(=O)N(C)[C@H]2C/C=C\CCN(C2=O)[C@@H](Cc2ccc(C(F)(F)F)cc2)C(=O)N(C)CC(=O)N[C@@H](CCc2ccc(C(F)(F)F)c(OC)c2)C(=O)N2C[C@H](OCC)C[C@H]2C(=O)N(C)C2(CCC2)C(=O)N(C)[C@@H](C2CCCC2)C(=O)N(C)[C@H](C(=O)N(C)C)CC(=O)N1C [PP2316, (2S,8S,12R,14S,20S,23S,27S,30S,36S,38Z)-20-cyclopentyl-32-cyclopropyl-12-ethoxy-8-[2-[3-methoxy-4-(trifluoromethyl)phenyl]ethyl]-N,N,4,16,19,22,26,35-octamethyl-30-[(1S)-1-methylpropyl]-3,6,9,15,18,21,25,28,31,34,42-undecaoxo-27-propyl-2-[[4-(trifluoromethyl)phenyl]methyl]spiro[1,4,7,10,16,19,22,26,29,32,35-undecazatricyclo[34.5.1.0^10,14]dotetracont-38-ene-17,1′-cyclobutane]-23-carboxamide]
- HRAS/KRAS (ratio of KD value with respect to HRAS to KD value with respect to KRAS) ([1]; SPR): A (a compound having 10 or more and less than 20 is denoted as A)
- NRAS/KRAS (ratio of KD value with respect to NRAS to KD value with respect to KRAS) ([2]; SPR): A (a compound having 10 or more and less than 20 is denoted as A)

Compound: CCO[C@@H]1C[C@H]2C(=O)NC3(CC(C)(C)C3)C(=O)N(C)[C@@H](C3CCCC3)C(=O)N(C)[C@H](C(=O)N(C)CC)CC(=O)N(C)[C@@H](CC)C(=O)N[C@@H]([C@@H](C)CC)C(=O)N(C)CC(=O)N(C)[C@H]3C/C=C\CCN(C3=O)[C@@H](Cc3ccc(C)cc3)C(=O)N(C)CC(=O)N[C@@H](CCc3ccc(C(F)(F)F)c(Cl)c3)C(=O)N2C1 [PP1880]
- HRAS/KRAS (ratio of KD value for HRAS to KD value for KRAS) ([1]; KD ratio, SPR): B (a compound having 3 or more and less than 10 is denoted as B)
- NRAS/KRAS (ratio of KD value for NRAS to KD value for KRAS) ([2]; KD ratio, SPR): A (a compound having 10 or more and less than 20 is denoted as A)

Compound: CCO[C@@H]1C[C@H]2C(=O)NC3(CC(F)(F)C3)C(=O)N(C)[C@@H](C3CCCC3)C(=O)N(C)[C@H](CC)CC(=O)N(C)[C@@H](CC)C(=O)N[C@@H]([C@@H](C)CC)C(=O)N(C)CC(=O)N(C)[C@H]3C/C=C\CCN(C3=O)[C@@H](Cc3ccc(C(F)(F)F)cc3)C(=O)N(C)CC(=O)N[C@@H](CCc3cc(F)c(C(F)(F)F)c(F)c3)C(=O)N2C1 [PP1627]
- HRAS/KRAS (ratio of KD value for HRAS to KD value for KRAS) ([1]; KD ratio, SPR): A (a compound having 10 or more and less than 20 is denoted as A)
- NRAS/KRAS (ratio of KD value for NRAS to KD value for KRAS) ([2]; KD ratio, SPR): A (a compound having 10 or more and less than 20 is denoted as A)

Compound: CC[C@H](C)[C@@H]1NC(=O)[C@H](CC(C)C)N(C)C(=O)C[C@@H](C(=O)N2CCOCC2)N(C)C(=O)[C@H](C2CCCC2)N(C)C(=O)C(C)(C)NC(=O)[C@@H]2CCCN2C(=O)[C@H](CCc2cc(F)c(C(F)(F)F)c(F)c2)NC(=O)CN(C)C(=O)[C@H](Cc2ccc(C(F)(F)F)cc2)N2CCCCC[C@@H](C2=O)N(C)C(=O)CN(C)C1=O [PP0503]
- HRAS/KRAS (ratio of KD value with respect to GDP-bound HRAS wild-type protein to KD value with respect to KRAS) ([1]; SPR): B (a compound having 3 or more and less than 10 is denoted as B)
- NRAS/KRAS (ratio of KD value with respect to GDP-bound NRAS wild-type protein to KD value with respect to KRAS) ([2]; SPR): A (a compound having 10 or more and less than 20 is denoted as A)

Compound: CCC[C@H]1C(=O)N[C@@H](CC(C)C)C(=O)N2C[C@@H](OC)C[C@H]2C(=O)N(C)[C@H]2C/C=C\CCN(C2=O)[C@@H](Cc2ccc(C)cc2)C(=O)N(C)CC(=O)N[C@@H](CCc2ccc(C(F)(F)F)c(OC)c2)C(=O)N2C[C@H](OCC)C[C@H]2C(=O)NC2(CC(C)(C)C2)C(=O)N(C)[C@@H](C2CCCC2)C(=O)N(C)[C@H](C(=O)N(C)C)CC(=O)N1C [PP2554]
- HRAS/KRAS (ratio of KD value with respect to GDP-bound HRAS wild-type protein to KD value with respect to KRAS) ([1]; class symbols): B (a compound having 3 or more and less than 10 is denoted as B)
- NRAS/KRAS (ratio of KD value with respect to GDP-bound NRAS wild-type protein to KD value with respect to KRAS) ([2]; class symbols): A (a compound having 10 or more and less than 20 is denoted as A)

Compound: CCCOC[C@H]1C(=O)N[C@@H]([C@@H](C)CC)C(=O)N(C)CC(=O)N(C)[C@H]2C/C=C\CCN(C2=O)[C@@H](Cc2ccc(C(F)(F)F)cc2)C(=O)N(C)CC(=O)N[C@@H](CCc2ccc(C(F)(F)F)c(Cl)c2)C(=O)N2C[C@H](OCC)C[C@H]2C(=O)NC2(CC(C)(C)C2)C(=O)N(C)[C@@H](C2CCCC2)C(=O)N(C)[C@H](C(=O)N(C)C)CC(=O)N1C [PP1754]
- HRAS/KRAS (ratio of KD value for HRAS to KD value for KRAS) ([1]; KD ratio, SPR): A (a compound having 10 or more and less than 20 is denoted as A)
- NRAS/KRAS (ratio of KD value for NRAS to KD value for KRAS) ([2]; KD ratio, SPR): A (a compound having 10 or more and less than 20 is denoted as A)

Compound: CC[C@H](C)[C@@H]1NC(=O)[C@H](CC(C)C)N(C)C(=O)C[C@@H](C(=O)N2CCOCC2)N(C)C(=O)[C@H](C2CCCC2)N(C)C(=O)C2(CCC2)NC(=O)[C@@H]2[C@H](O)CCN2C(=O)[C@H](CCc2cc(F)c(C(F)(F)F)c(F)c2)NC(=O)CN(C)C(=O)[C@H](Cc2ccc(C(F)(F)F)cc2)N2CCCCC[C@@H](C2=O)N(C)C(=O)CN(C)C1=O [PP0873]
- HRAS/KRAS (ratio of KD value with respect to HRAS to KD value with respect to KRAS) ([1]; KD ratio, SPR): B (a compound having 3 or more and less than 10 is denoted as B)
- NRAS/KRAS (ratio of KD value with respect to NRAS to KD value with respect to KRAS) ([2]; KD ratio, SPR): A (a compound having 10 or more and less than 20 is denoted as A)
